Experimental data published in patent US20190011433A1, “CELL CO-CULTURE SYSTEMS AND USES THEREOF” (Dana-Farber Cancer Institute, Inc., priority 2007, published 2019).
“Also recorded” adds a separate entry of the source.

How the values were obtained:
[1] = system: MM-1R-GFP-luc myeloma cells; experiment: CS-BLI drug sensitivity of MM-1R-GFP-luc cells in presence vs absence of stromal cells; details: MM-1R-GFP-luc (Dex-resistant), presence vs absence of HS-5 BMSCs (10,000 per well)
[2] = system: MM-1S-GFP-luc myeloma cells; experiment: CS-BLI drug sensitivity of MM-1S-GFP-luc cells in presence vs absence of stromal cells; assay type: cell-based, human; details: presence vs absence of HS-5 BMSCs (10,000 per well)
Protocol: Luciferin (7.5 mg/mL; Xenogen Corp, Alameda, Calif.) was added at the volume stated in each experiment. Cell viability and the precise cell counts were established by Trypan blue exclusion assay immediately before plating of the cells. Compartment-specific bioluminescence emitted by individual wells of these plates was measured with two different bioluminescence imaging modalities, namely a Xenogen IVIS® Imaging System (FIG. 1A and FIG. 1B) and a standard luminometer plate reader—Luminoskan luminometer (Labsystems, MA) (FIG. 1C). The results with each method were analyzed for the linearity of the bioluminescent signal vs. cell number using the Living Image® software (Xenogen Corp, Alameda Calif.).

[3] = system: MDA-MB-231met-luc-neo cells; experiment: CS-BLI drug sensitivity of MDA-MB-231met-luc-neo cells alone or with HS-5 BMSCs; assay type: cell-based; details: MDA-MB-231met-luc-neo alone or with HS-5 BMSCs (10,000/well), 48 hrs
Protocol: (§1) MDA-MB-231met-luc-neo (FIG. 18A, FIG. 18B), A375-luc-neo (FIG. 18C, FIG. 18D) and FRO-luc-neo (FIG. 18E, FIG. 18F) cells were plated either alone or mixed with HS-5 BMSCs (10,000 /well) and treated the following day. The cultures of tumor cells and their co-cultures with BMSCs were incubated for an additional 48 hrs.

K562-luc leukemia cells = experiment: CS-BLI drug sensitivity of K562-luc leukemia cells in presence vs absence of HS-5 BMSCs; assay type: cell-based; details: presence vs absence of HS-5 BMSCs (10,000 per well)
Description: (§2) Applicants expanded the application of in vitro compartment-specific bioluminescence imaging assays beyond the MM cells to other tumor models, namely a few leukemic cell lines. Applicants specifically tested luciferase-expressing K562-luc-neo and KU812F-luc-neo leukemic cells against standard anti-leukemia agents, including AraC and Doxo, in the presence vs. absence of HS-5 stromal cells (FIG. 7A and FIG. 7B).

[4] = system: KU812F-luc leukemia cells; experiment: CS-BLI drug sensitivity of KU812F-luc leukemia cells in presence vs absence of HS-5 BMSCs; assay type: cell-based; details: presence vs absence of HS-5 BMSCs (10,000 per well)
Description: In another set of experiments, Applicants tested and observed similar protective/sensitization effect of stroma cell on KU812F-luc cells on various drugs (data not shown).
as §2

A375-luc-neo cells = experiment: CS-BLI drug sensitivity of A375-luc-neo cells alone or with HS-5 BMSCs; assay type: cell-based; details: A375-luc-neo alone or with HS-5 BMSCs (10,000/well), 48 hrs
Protocol: as §1

FRO-luc-neo cells = experiment: CS-BLI drug sensitivity of FRO-luc-neo cells alone or with HS-5 BMSCs; assay type: cell-based; details: FRO-luc-neo alone or with HS-5 BMSCs (10,000/well), 48 hrs
Protocol: as §1

[5] = system: MM.1S-GFP-luc target cells; experiment: CS-BLI killing of MM.1S-GFP-luc target cells by IL-2 stimulated PBMCs; assay type: cell-based, human; details: for effect of concurrent drug exposure of co-culture on activity of PBMCs to kill tumor targets: 2 μM CC5013, 2 μM CC4047, 20 nM PS-341 or 100 nM Dex during co-culture; for effect of concurrent drug exposure of co-culture on activity of PBMCs to kill tumor targets / effect of drug pretreatment of PBMCs on activity of PBMCs to kill tumor targets: MM.1S-GFP-luc targets; for effect of drug pretreatment of PBMCs on activity of PBMCs to kill tumor targets: PBMCs pretreated 24 hrs with IL-2 plus 1 μM CC5013, 1 μM CC4047, 10 nM PS-341 or 50 nM Dexamethasone, washed
Protocol: (§3) PBMCs were isolated from a healthy donor, stimulated for 24 hrs with 10 ng/mL of IL-2 and then combined in culture with 5000 tumor target cells. The human multiple myeloma line, MM.1S-GFP-luc (FIG. 27A), was used as target cells and combined with PBMCs at 1:1, 1:5, 1:10, 1:20 and 1:40 ratios. The basophilic leukemia line, KU812F-luc-neo (FIG. 27B), was used as target cells and combined with PBMCs from the same donor at 1:1, 1:5, 1:10, 1:20 and 1:40 ratios. Viability of tumor cells was assessed using bioluminescence detection after the addition of luciferin substrate following 4 hours of co-culture with immune effector cells.
PBMCs were isolated from a healthy donor, stimulated for 24 hrs with IL-2 in the presence of either 1 μM CC5013 (FIG. 29A), 1 μM CC4047 (FIG. 29B), 10 nM PS-341 (FIG. 29C), or 50 nM Dexamethasone (FIG. 29D). PBMCs were washed and combined in culture with MM.1S-GFP-luc target cells at the 1:1, 1:2.5, 1:5, 1:10, 1:20 and 1:40 target to effector ratios.
PBMCs were isolated from a healthy donor, stimulated for 24 hrs with IL-2 in the presence or absence of 1 μM CC4047. MM.1S-GFP-luc cells were cultured in the presence or absence of 1 μM CC4047. PBMCs and MM.1S-GFP-luc cells were washed to remove drug and combined in culture with target MM.1S-GFP-luc target cells, either pretreated with 1 μM CC4047 or without, and combined at 1:1, 1:2.5, 1:5, 1:10, 1:20 and 1:40 target to effector ratios in the absence of drug.
PBMCs were isolated from a healthy donor, stimulated for 24 hrs with IL-2. PBMCs were combined in culture with MM.1S-GFP-luc target cells at the 1:1, 1:2.5, 1:5, 1:10, 1:20 and 1:40 target to effector ratios in the presence or absence of 2 μM CC5013 (FIG. 32A), 2 μM CC4047 (FIG. 32B), 20 nM PS-341 (FIG. 32C), or 100 nM Dex (FIG. 32D) during co-culture.

[6] = system: KU812F-luc-neo target cells; experiment: CS-BLI killing of KU812F-luc-neo target cells by IL-2 stimulated PBMCs; assay type: cell-based; details: for effect of concurrent drug exposure of co-culture on activity of PBMCs to kill tumor targets: 2 μM CC5013, 2 μM CC4047, 20 nM PS-341 or 100 nM Dex during co-culture; for effect of drug pretreatment of PBMCs on activity of PBMCs to kill tumor targets: PBMCs pretreated 24 hrs with IL-2 plus 1 μM CC5013, 1 μM CC4047, 10 nM PS-341 or 50 nM Dexamethasone, washed
Protocol: as §3
PBMCs were isolated from a healthy donor, stimulated for 24 hrs with IL-2 with either 1 μM CC5013 (FIG. 30A), 1 μM CC4047 (FIG. 30B), 10 nM PS-341 (FIG. 30C), or 50 nM Dexamethasone (FIG. 30D). PBMCs were washed and combined in culture with KU812F-luc-neo target cells at the 1:1, 1:2.5, 1:5, 1:10, 1:20 and 1:40 target to effector ratios.
PBMCs were isolated from a healthy donor, stimulated for 24 hrs with IL-2. PBMCs were then washed and combined in culture with KU812F-luc-neo target cells at the 1:1, 1:2.5, 1:5, 1:10, 1:20 and 1:40 target to effector ratios in the presence or absence 2 μM CC5013 (FIG. 33A), 2 μM CC4047 (FIG. 33B), 20 nM PS-341 (FIG. 33C), or 100 nM Dex (FIG. 33D).

[7] = system: Multiple myeloma (MM) cells; details: cited from earlier work
MM = details: cited from earlier work

CC1=C2C(=O)[C@H]3[C@@H](CC=C4C[C@@H](O)CC[C@@]43C)[C@@H]2CC[C@]12O[C@@H]1C[C@H](C)CN[C@H]1[C@H]2C [11-keto-cyclopamine]
effect of BMSC co-culture on tumor cell response to drug (protection) [1]: conferred protection
effect of BMSC co-culture on tumor cell response to drug (protection) [2]: conferred protection

Nc1ccn([C@@H]2O[C@H](CO)[C@@H](O)[C@@H]2O)c(=O)n1 [AraC]
effect of BMSC co-culture on tumor cell response to drug (protection) [3]: modest protection
effect of BMSC co-culture on tumor cell response to drug (protection) (K562-luc leukemia cells): protection was observed
effect of BMSC co-culture on tumor cell response to drug (protection) [4]: decreased the responsiveness; also recorded: confer protection
effect of BMSC co-culture on tumor cell response to drug (protection) ([4]; listed as Ara-C): develop stromal-derived resistance
effect of BMSC co-culture on tumor cell response to drug (protection) (A375-luc-neo cells): considerable level of protection
effect of BMSC co-culture on tumor cell response to drug (protection) (FRO-luc-neo cells): no protection

Nc1cccc2c1C(=O)N(C1CCC(=O)NC1=O)C2=O (stereo not shown) [CC4047]
effect of concurrent drug exposure of co-culture on activity of PBMCs to kill tumor targets [5]: increased activity
effect of drug pretreatment of target myeloma cells on killing by PBMCs ([5]; MM.1S-GFP-luc cells pretreated with 1 μM CC4047, washed): significant increase
effect of drug pretreatment of PBMCs on activity of PBMCs to kill tumor targets [5]: did not have a significant impact; also recorded: no significant increasing in activity
effect of concurrent drug exposure of co-culture on activity of PBMCs to kill tumor targets [6]: significant difference increasing the activity
effect of drug pretreatment of PBMCs on activity of PBMCs to kill tumor targets [6]: did have a significant impact on increasing

Nc1cccc2c1CN(C1CCC(=O)NC1=O)C2=O (stereo not shown) [CC5013]
effect of concurrent drug exposure of co-culture on activity of PBMCs to kill tumor targets [5]: had an increase in the activity
effect of drug pretreatment of PBMCs on activity of PBMCs to kill tumor targets [5]: did not have a significant impact
effect of concurrent drug exposure of co-culture on activity of PBMCs to kill tumor targets [6]: significant difference increasing the activity
effect of drug pretreatment of PBMCs on activity of PBMCs to kill tumor targets [6]: did not have a significant impact

Cc1ccc(NC(=O)c2ccc(CN3CCN(C)CC3)cc2)cc1Nc1nccc(-c2cccnc2)n1 [Imatinib, imatinib]
effect of BMSC co-culture on tumor cell response to drug (protection) (K562-luc leukemia cells): do not confer protection
effect of BMSC co-culture on tumor cell response to drug (protection) (K562-luc leukemia cells; listed as imatinib): do not exhibit such phenotype
effect of BMSC co-culture on tumor cell response to drug (protection) [4]: confer protection
effect of BMSC co-culture on tumor cell response to drug (protection) ([4]; listed as imatinib): develop stromal-derived resistance; also recorded: decreased the responsiveness

CC(C)C[C@H](NC(=O)[C@H](Cc1ccccc1)NC(=O)c1cnccn1)B(O)O [PS-341, bortezomib]
effect of concurrent drug exposure of co-culture on activity of PBMCs to kill tumor targets [5]: decreased activity
effect of drug pretreatment of PBMCs on activity of PBMCs to kill tumor targets [5]: did have a significant impact on blocking
effect of BMSC co-culture on tumor cell response to drug (protection) [1]: confer no protection
effect of BMSC co-culture on tumor cell response to drug (protection) ([1]; listed as bortezomib): did not abrogate the responsiveness
effect of BMSC co-culture on tumor cell response to drug (protection) ([2]; listed as bortezomib): did not abrogate the responsiveness
effect of concurrent drug exposure of co-culture on activity of PBMCs to kill tumor targets [6]: significant difference blocking the activity
effect of drug pretreatment of PBMCs on activity of PBMCs to kill tumor targets [6]: did have a significant impact on blocking

Nc1cccc2c1CN(C1CCC(=O)NC1=O)C2=O (stereo not shown) [lenalidomide]
single-agent in vitro anti-MM activity [7]: modest
anti-MM activity in vivo (MM): potent

Cc1cn(-c2cc(NC(=O)c3ccc(C)c(Nc4nccc(-c5cccnc5)n4)c3)cc(C(F)(F)F)c2)cn1 [nilotinib]
effect of BMSC co-culture on tumor cell response to drug (protection) (K562-luc leukemia cells): do not confer protection
effect of BMSC co-culture on tumor cell response to drug (protection) [4]: confer protection

O=C1CCC(N2C(=O)c3ccccc3C2=O)C(=O)N1 (stereo not shown) [thalidomide]
single-agent in vitro anti-MM activity [7]: modest
anti-MM activity in vivo (MM): potent
